# Key:
# Assay type in all cases: in vivo, human
# [1] = ALZ-801 immediate release tablet, pharmacokinetics and GI tolerability fed vs fasted
# [2] = Phase I single dose study, plasma tramiprosate pharmacokinetics; conditions: single dose of oral ALZ-801
# Excerpt: (§1) To advance the clinical development of ALZ-801 into Phase 3, we have completed single dose and 14-day multiple ascending dose Phase 1 bridging studies in healthy elderly volunteers to evaluate safety, tolerability and pharmacokinetics. […] The longer half-life observed in the multiple ascending dose studies was obtained after 14 days of BID dosing and was due to the fact that there were more extended blood sampling time points taken in that study as compared to the single dose study.
# [3] = Phase I 14-day multiple ascending dose study, plasma tramiprosate pharmacokinetics; conditions: over 14 days
# Excerpt: as §1
smiles,measurement,setting,value
"CC(C)[C@H](N)C(=O)NCCCS(=O)(=O)O [ALZ-801, valyl-3-amino-1-propanesulfonic acid]",Incidence of GI symptoms with food compared to the fasted state,[1]; ALZ-801 immediate release tablet,markedly reduced
same,Difference in pharmacokinetic parameters between fed and fasted subjects,"[1]; ALZ-801 tablet, single dose of 205 mg",no significant difference
same,Plasma exposure of tramiprosate compared with oral tramiprosate,[2],equivalent plasma exposure of tramiprosate
same,Dose proportionality and accumulation of plasma tramiprosate exposure,[3],excellent dose proportionality without accumulation or decrease in plasma exposure

# Reference: US11191742B2, “Methods of treating neurodegenerative disorders in a particular population” (ALZHEON, INC., priority 2015, dated 2021)
